“And” between values parts separate entries of the source, which are not always exact repeats. Equal entries are not always repeated. HELM strings list units from the 5' end as sugar, base in round brackets, then linkage (d deoxyribose, r ribose, m 2'-O-methyl, p phosphodiester). Methylation of C is not given here. [moe] = 2'-O-(2-methoxyethyl) (MOE); [cEt] = constrained ethyl (cEt); [sp] = phosphorothioate linkage
Target: HBV
Details: ASO

RNA1{[moe](A)[sp].[moe](A)[sp].[moe](G)[sp].[moe](C)[sp].[cEt](G)[sp].[cEt](A)[sp].d(A)[sp].d(G)[sp].d(T)[sp].d(G)[sp].d(C)[sp].d(A)[sp].d(C)[sp].[moe](A)[sp].[moe](C)[sp].[moe](G)[sp].[moe](G)}$$$$V2.0
target mRNA inhibition (HepG2, 0.009375 µM): 26%
target mRNA inhibition (HepG2, 0.01875 µM): 29%
target mRNA inhibition (HepG2, 0.0375 µM): 30%
target mRNA inhibition (HepG2, 0.075 µM): 64%
target mRNA inhibition (HepG2, 0.15 µM): 80%
target mRNA inhibition (HepG2, 0.3 µM): 91%

RNA1{[moe](T)[sp].[moe](T)[sp].d(A)[sp].d(T)[sp].d(G)[sp].d(C)[sp].d(C)[sp].d(T)[sp].d(A)[sp].d(C)[sp].d(A)[sp].[moe](G)[sp].[moe](C)[sp].[moe](C)[sp].[moe](T)[sp].[moe](C)[sp].[moe](C)}$$$$V2.0
target mRNA inhibition (HepG2, 0.07 µM): 56% and 57%

RNA1{[moe](A)[sp].[moe](A)[sp].d(G)[sp].d(C)[sp].d(G)[sp].d(A)[sp].d(A)[sp].d(G)[sp].d(T)[sp].d(G)[sp].d(C)[sp].[moe](A)[sp].[moe](C)[sp].[moe](A)[sp].[moe](C)[sp].[moe](G)[sp].[moe](G)}$$$$V2.0
target mRNA inhibition (HepG2, 0.0092593 µM): 11%
target mRNA inhibition (HepG2, 0.0277778 µM): 27%
target mRNA inhibition (HepG2, 0.07 µM): 88% and 80%
target mRNA inhibition (HepG2, 0.0833333 µM): 58%
target mRNA inhibition (HepG2, 0.25 µM): 80%

RNA1{[moe](A)[sp].[cEt](C)[sp].[cEt](C)[sp].d(A)[sp].d(C)[sp].d(T)[sp].d(G)[sp].d(A)[sp].d(A)[sp].d(C)[sp].d(A)[sp].d(A)[sp].d(A)[sp].[cEt](T)[sp].[cEt](G)[sp].[moe](G)}$$$$V2.0
target mRNA inhibition (HepG2, 0.07 µM): 70% and 57%

RNA1{[moe](G)[sp].[cEt](C)[sp].[cEt](A)[sp].d(C)[sp].d(A)[sp].d(G)[sp].d(C)[sp].d(T)[sp].d(T)[sp].d(G)[sp].d(G)[sp].d(A)[sp].d(G)[sp].[cEt](G)[sp].[cEt](C)[sp].[moe](T)}$$$$V2.0
target mRNA inhibition (HepG2, 0.07 µM): 27% and 12%

RNA1{[moe](T)[sp].[moe](T)[sp].[moe](T)[sp].d(A)[sp].d(T)[sp].d(G)[sp].d(C)[sp].d(C)[sp].d(T)[sp].d(A)[sp].d(C)[sp].d(A)[sp].[moe](G)[sp].[moe](C)[sp].[moe](C)[sp].[moe](T)[sp].[moe](C)}$$$$V2.0
target mRNA inhibition (HepG2, 0.07 µM): 62% and 49%

RNA1{[moe](G)[sp].[moe](C)[sp].[moe](A)[sp].[moe](G)[sp].[moe](A)[sp].d(G)[sp].d(G)[sp].d(T)[sp].d(G)[sp].d(A)[sp].d(A)[sp].d(G)[sp].d(C)[sp].d(G)[sp].[moe](A)[sp].[moe](A)}$$$$V2.0
target mRNA inhibition (HepG2, 0.07 µM): 63% and 58%

RNA1{[moe](C)[sp].[cEt](T)[sp].d(G)[sp].d(G)[sp].d(A)[sp].d(G)[sp].d(C)[sp].d(C)[sp].d(A)[sp].d(C)[sp].d(C)[sp].d(A)[sp].[cEt](G)[sp].[moe](C)[sp].[cEt](A)[sp].[moe](G)}$$$$V2.0
target mRNA inhibition (HepG2, 0.07 µM): 56%

RNA1{[moe](C)[sp].[moe](A)[sp].[moe](A)[sp].[moe](T)[sp].[moe](T)[sp].d(T)[sp].d(A)[sp].d(T)[sp].d(G)[sp].d(C)[sp].d(C)[sp].d(T)[sp].d(A)[sp].d(C)[sp].[moe](A)[sp].[moe](G)}$$$$V2.0
target mRNA inhibition (HepG2, 0.07 µM): 24% and 11%

RNA1{[moe](C)[sp].[moe](G)[sp].d(C)[sp].d(A)[sp].d(G)[sp].d(T)[sp].d(A)[sp].d(T)[sp].d(G)[sp].d(G)[sp].d(A)[sp].[moe](T)[sp].[moe](C)[sp].[moe](G)[sp].[moe](G)[sp].[moe](C)[sp].[moe](A)}$$$$V2.0
target mRNA inhibition (HepG2, 0.07 µM): 82% and 80%

RNA1{[moe](G)[sp].[moe](T)[sp].[moe](G)[sp].d(A)[sp].d(A)[sp].d(G)[sp].d(C)[sp].d(G)[sp].d(A)[sp].d(A)[sp].d(G)[sp].d(T)[sp].[moe](G)[sp].[moe](C)[sp].[moe](A)[sp].[moe](C)[sp].[moe](A)}$$$$V2.0
target mRNA inhibition (HepG2, 0.07 µM): 71% and 63%

RNA1{[moe](G)[sp].[moe](A)[sp].[moe](T)[sp].[moe](G)[sp].d(A)[sp].d(G)[sp].d(G)[sp].d(C)[sp].d(A)[sp].d(T)[sp].d(A)[sp].d(G)[sp].d(C)[sp].[moe](A)[sp].[moe](G)[sp].[moe](C)[sp].[moe](A)}$$$$V2.0
target mRNA inhibition (HepG2, 0.07 µM): 0% and 13%

RNA1{[moe](G)[sp].[moe](C)[sp].[moe](A)[sp].d(G)[sp].d(T)[sp].d(A)[sp].d(T)[sp].d(G)[sp].d(G)[sp].d(A)[sp].d(T)[sp].d(C)[sp].d(G)[sp].[cEt](G)[sp].[cEt](C)[sp].[cEt](A)}$$$$V2.0
target mRNA inhibition (HepG2, 0.0092593 µM): 4%
target mRNA inhibition (HepG2, 0.0277778 µM): 36%
target mRNA inhibition (HepG2, 0.07 µM): 74% and 85%
target mRNA inhibition (HepG2, 0.0833333 µM): 58%
target mRNA inhibition (HepG2, 0.25 µM): 84%

RNA1{[moe](G)[sp].[moe](A)[sp].[moe](A)[sp].[moe](G)[sp].[moe](C)[sp].d(G)[sp].d(A)[sp].d(A)[sp].d(G)[sp].d(T)[sp].d(G)[sp].d(C)[sp].d(A)[sp].d(C)[sp].[moe](A)[sp].[moe](C)[sp].[moe](G)}$$$$V2.0
target mRNA inhibition (HepG2, 0.07 µM): 80% and 58%

RNA1{[moe](A)[sp].[moe](A)[sp].[moe](C)[sp].[moe](T)[sp].[moe](G)[sp].d(G)[sp].d(A)[sp].d(G)[sp].d(C)[sp].d(C)[sp].d(A)[sp].d(C)[sp].d(C)[sp].d(A)[sp].[moe](G)[sp].[moe](C)[sp].[moe](A)}$$$$V2.0
target mRNA inhibition (HepG2, 0.07 µM): 31% and 37%

RNA1{[moe](G)[sp].[moe](C)[sp].[moe](A)[sp].d(T)[sp].d(A)[sp].d(G)[sp].d(C)[sp].d(A)[sp].d(G)[sp].d(C)[sp].d(A)[sp].d(G)[sp].d(G)[sp].[cEt](A)[sp].[cEt](T)[sp].[cEt](G)}$$$$V2.0
target mRNA inhibition (HepG2, 0.07 µM): 67% and 76%

RNA1{[cEt](A)[sp].[moe](G)[sp].[cEt](C)[sp].d(G)[sp].d(A)[sp].d(A)[sp].d(G)[sp].d(T)[sp].d(G)[sp].d(C)[sp].d(A)[sp].[moe](C)[sp].[moe](A)[sp].[moe](C)[sp].[moe](G)[sp].[moe](G)}$$$$V2.0
target mRNA inhibition (HepG2, 0.009375 µM): 37%
target mRNA inhibition (HepG2, 0.01875 µM): 39%
target mRNA inhibition (HepG2, 0.0375 µM): 59%
target mRNA inhibition (HepG2, 0.075 µM): 72%
target mRNA inhibition (HepG2, 0.15 µM): 86%
target mRNA inhibition (HepG2, 0.3 µM): 90%

RNA1{[moe](T)[sp].[cEt](G)[sp].d(G)[sp].d(A)[sp].d(G)[sp].d(C)[sp].d(C)[sp].d(A)[sp].d(C)[sp].d(C)[sp].d(A)[sp].d(G)[sp].[cEt](C)[sp].[moe](A)[sp].[cEt](G)[sp].[moe](G)}$$$$V2.0
target mRNA inhibition (HepG2, 0.07 µM): 59% and 42%

RNA1{[moe](A)[sp].[moe](C)[sp].d(C)[sp].d(A)[sp].d(C)[sp].d(T)[sp].d(G)[sp].d(A)[sp].d(A)[sp].d(C)[sp].d(A)[sp].[moe](A)[sp].[moe](A)[sp].[moe](T)[sp].[moe](G)[sp].[moe](G)[sp].[moe](C)}$$$$V2.0
target mRNA inhibition (HepG2, 0.07 µM): 58% and 68%

RNA1{[moe](T)[sp].[moe](G)[sp].[moe](A)[sp].d(A)[sp].d(G)[sp].d(C)[sp].d(G)[sp].d(A)[sp].d(A)[sp].d(G)[sp].d(T)[sp].d(G)[sp].[moe](C)[sp].[moe](A)[sp].[moe](C)[sp].[moe](A)[sp].[moe](C)}$$$$V2.0
target mRNA inhibition (HepG2, 0.07 µM): 74% and 60%

RNA1{[moe](C)[sp].[moe](T)[sp].[moe](G)[sp].d(G)[sp].d(A)[sp].d(G)[sp].d(C)[sp].d(C)[sp].d(A)[sp].d(C)[sp].d(C)[sp].d(A)[sp].[moe](G)[sp].[moe](C)[sp].[moe](A)[sp].[moe](G)}$$$$V2.0
target mRNA inhibition (HepG2, 0.07 µM): 42% and 38%

RNA1{[moe](C)[sp].[moe](G)[sp].[moe](C)[sp].d(A)[sp].d(G)[sp].d(T)[sp].d(A)[sp].d(T)[sp].d(G)[sp].d(G)[sp].d(A)[sp].d(T)[sp].[moe](C)[sp].[moe](G)[sp].[moe](G)[sp].[moe](C)}$$$$V2.0
target mRNA inhibition (HepG2, 0.07 µM): 84% and 68%

RNA1{[moe](G)[sp].[moe](C)[sp].[moe](A)[sp].d(T)[sp].d(A)[sp].d(G)[sp].d(C)[sp].d(A)[sp].d(G)[sp].d(C)[sp].d(A)[sp].d(G)[sp].[moe](G)[sp].[moe](A)[sp].[moe](T)[sp].[moe](G)}$$$$V2.0
target mRNA inhibition (HepG2, 0.07 µM): 60% and 53%

RNA1{[moe](G)[sp].[moe](T)[sp].[moe](T)[sp].d(C)[sp].d(C)[sp].d(G)[sp].d(C)[sp].d(A)[sp].d(G)[sp].d(T)[sp].d(A)[sp].d(T)[sp].[moe](G)[sp].[moe](G)[sp].[moe](A)[sp].[moe](T)[sp].[moe](C)}$$$$V2.0
target mRNA inhibition (HepG2, 0.07 µM): 60% and 54%

RNA1{[moe](A)[sp].[moe](C)[sp].[moe](T)[sp].d(G)[sp].d(G)[sp].d(A)[sp].d(G)[sp].d(C)[sp].d(C)[sp].d(A)[sp].d(C)[sp].d(C)[sp].d(A)[sp].[cEt](G)[sp].[cEt](C)[sp].[cEt](A)}$$$$V2.0
target mRNA inhibition (HepG2, 0.07 µM): 64% and 73%

RNA1{[moe](C)[sp].[cEt](A)[sp].[cEt](A)[sp].d(T)[sp].d(T)[sp].d(T)[sp].d(A)[sp].d(T)[sp].d(G)[sp].d(C)[sp].d(C)[sp].d(T)[sp].d(A)[sp].[cEt](C)[sp].[cEt](A)[sp].[moe](G)}$$$$V2.0
target mRNA inhibition (HepG2, 0.07 µM): 49% and 41%

RNA1{[moe](C)[sp].[moe](G)[sp].d(T)[sp].d(G)[sp].d(C)[sp].d(A)[sp].d(G)[sp].d(A)[sp].d(G)[sp].d(G)[sp].d(T)[sp].[moe](G)[sp].[moe](A)[sp].[moe](A)[sp].[moe](G)[sp].[moe](C)}$$$$V2.0
target mRNA inhibition (HepG2, 0.07 µM): 51% and 60%

RNA1{[moe](T)[sp].[moe](T)[sp].[moe](C)[sp].d(C)[sp].d(G)[sp].d(C)[sp].d(A)[sp].d(G)[sp].d(T)[sp].d(A)[sp].d(T)[sp].d(G)[sp].[moe](G)[sp].[moe](A)[sp].[moe](T)[sp].[moe](C)}$$$$V2.0
target mRNA inhibition (HepG2, 0.07 µM): 53% and 50%

RNA1{[moe](T)[sp].[moe](C)[sp].[moe](C)[sp].d(G)[sp].d(C)[sp].d(A)[sp].d(G)[sp].d(T)[sp].d(A)[sp].d(T)[sp].d(G)[sp].d(G)[sp].[moe](A)[sp].[moe](T)[sp].[moe](C)[sp].[moe](G)}$$$$V2.0
target mRNA inhibition (HepG2, 0.07 µM): 65% and 72%

RNA1{[moe](A)[sp].[moe](A)[sp].[moe](G)[sp].[moe](C)[sp].d(G)[sp].d(A)[sp].d(A)[sp].d(G)[sp].d(T)[sp].d(G)[sp].d(C)[sp].d(A)[sp].d(C)[sp].[moe](A)[sp].[moe](C)[sp].[moe](G)}$$$$V2.0
target mRNA inhibition (HepG2, 0.07 µM): 68% and 62%

Reference: the OligoGym collection
